# ChEMBL document CHEMBL4428116, “Synthesis, molecular modeling and SAR study of novel pyrazolo[5,1-f][1,6]naphthyridines as CB2 receptor antagonists/inverse agonists” (Bioorg Med Chem, 2016)
# The source made the active and inactive calls. The calls are words filed in the database; no cut-off is given here.
# Experiments:
# [1] = biological target: T1, Cannabinoid receptor 2 (Homo sapiens, UniProt P34972); assay: Antagonist activity at human CB2 receptor expressed in CHO cells assessed as inhibition of WIN 55,212-2-induced reduction in forskolin-stimulated cAMP accumulation by Schild plot analysis; type: functional, cell-based
# T1 sequence (P34972 whole entry): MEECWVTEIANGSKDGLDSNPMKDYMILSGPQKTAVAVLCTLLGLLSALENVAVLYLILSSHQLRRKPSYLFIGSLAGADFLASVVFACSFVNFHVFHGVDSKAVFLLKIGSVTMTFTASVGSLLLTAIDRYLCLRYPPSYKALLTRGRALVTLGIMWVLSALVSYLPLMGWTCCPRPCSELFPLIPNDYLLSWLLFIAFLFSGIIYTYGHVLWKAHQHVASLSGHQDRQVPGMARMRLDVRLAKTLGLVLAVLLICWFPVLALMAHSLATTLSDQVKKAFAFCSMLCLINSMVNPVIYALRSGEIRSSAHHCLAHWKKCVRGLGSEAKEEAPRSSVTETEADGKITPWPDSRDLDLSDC
# [2] = biological target: T1, Cannabinoid receptor 2; assay: Antagonist activity at human CB2 receptor expressed in CHO cells assessed as inhibition of WIN 55,212-2-induced reduction in forskolin-stimulated cAMP accumulation by immunoassay; type: functional, cell-based
# [3] = biological target: T1, Cannabinoid receptor 2; assay: Displacement of [3H]CP-55,940 from human CB2 receptor expressed in CHO cell membrane after 60 mins by scintillation counting method; type: cell membranes
# [4] = biological target: Cannabinoid receptor 1 (Homo sapiens, UniProt P21554); assay: Displacement of [3H]CP-55,940 from human CB1 receptor expressed in CHO cell membrane after 90 mins by scintillation counting method; type: cell membranes
# Cannabinoid receptor 1, sequence (P21554 whole entry): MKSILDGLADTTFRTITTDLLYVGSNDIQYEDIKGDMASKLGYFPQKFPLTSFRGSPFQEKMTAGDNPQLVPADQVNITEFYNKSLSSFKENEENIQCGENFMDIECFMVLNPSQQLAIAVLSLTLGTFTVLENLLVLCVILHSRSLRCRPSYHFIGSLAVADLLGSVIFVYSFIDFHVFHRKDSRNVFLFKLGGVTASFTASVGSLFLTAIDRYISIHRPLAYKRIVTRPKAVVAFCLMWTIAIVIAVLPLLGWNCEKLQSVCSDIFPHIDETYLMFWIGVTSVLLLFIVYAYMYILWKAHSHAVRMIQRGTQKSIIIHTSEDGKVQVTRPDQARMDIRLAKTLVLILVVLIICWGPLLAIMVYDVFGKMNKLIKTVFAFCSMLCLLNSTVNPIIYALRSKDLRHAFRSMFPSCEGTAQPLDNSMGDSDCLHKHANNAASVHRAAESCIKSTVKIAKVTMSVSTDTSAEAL
# [5] = organism: Homo sapiens; assay: Selectivity ratio of Ki for human CB1 receptor expressed in CHO cell membrane to Ki for human CB2 receptor expressed in CHO cell membrane; type: cell-based
# [6] = biological target: T1, Cannabinoid receptor 2; assay: Inverse agonist activity at human CB2 receptor expressed in CHO cells assessed as increase in forskolin-stimulated cAMP production at 0.1 uM by immunoassay; type: functional, cell-based
# [7] = organism: Mus musculus; assay: Selectivity ratio of Ki for CB1 receptor in CD-1 mouse cerebellum membrane to Ki for CB2 receptor in CD-1 mouse spleen homogenate; type: cell membranes
# [8] = biological target: T1, Cannabinoid receptor 2; assay: Antagonist activity at human CB2 receptor expressed in CHO cells assessed as inhibition of WIN 55,212-2-induced reduction in forskolin-stimulated cAMP accumulation at 0.1 to 10 uM by immunoassay; type: functional, cell-based
# [9] = biological target: T1, Cannabinoid receptor 2; assay: Inverse agonist activity at human CB2 receptor expressed in CHO cells assessed as increase in forskolin-stimulated cAMP production at 1 to 10 uM by immunoassay; type: functional, cell-based
SMILES,Kb [1] [nM],inhibition [2],Ki [3] [nM],Ki [4] [nM],Ratio Ki [5],Activity [6],Ratio Ki [7],inhibition [8],Activity [9]
Cc1ccc(-c2cc3ncccc3c3cc(C(=O)NC45CC6CC(CC(C6)C4)C5)nn23)cc1,316,Dose-dependent effect,33,5700,173,Active,–,–,–
Cc1ccc(-c2cc3ncccc3c3cc(C(=O)N[C@@H]4C[C@H](C)CC[C@H]4C(C)C)nn23)cc1,–,–,280,3300,12,–,–,–,–
Cc1ccc2c(c1)Cc1c(C(=O)NN3CCCCC3)nn(-c3ccc(Cl)cc3Cl)c1-2,–,–,–,–,–,–,9810,–,–
CC1(C)C2CC[C@@H](CNC(=O)c3cc4c5cccnc5cc(-c5ccc(Cl)cc5Cl)n4n3)C1C2 (stereo partly specified),650,–,67,> 10000,> 149,–,–,Active,Active
Cc1ccc(-c2cc3ncccc3c3cc(C(=O)NC4CCCCC4)nn23)cc1,–,–,2130,> 10000,> 4.7,–,–,–,–
Cc1ccc(-c2cc3ncccc3c3cc(C(=O)N[C@H]4CC5CCC4(C)C5(C)C)nn23)cc1 (stereo partly specified),505,–,53,7000,132,–,–,Active,Active
Cc1ccc(-c2cc3ncccc3c3cc(C(=O)NC[C@@H]4CCC5CC4C5(C)C)nn23)cc1 (stereo partly specified),–,–,120,> 10000,> 83,–,–,–,–
Cc1ccc(-c2cc3ncccc3c3cc(C(=O)NN4CCCCC4)nn23)cc1,–,–,> 1000,> 10000,–,–,–,–,–
Cc1ccc(-c2cc3ncccc3c3cc(C(=O)NC4C5CC6CC(C5)CC4C6)nn23)cc1 (stereo unspecified),–,–,133,> 10000,> 75,–,–,–,–
Cc1ccc(-c2cc3ncccc3c3cc(C(=O)NC4C5CC(C[C@@H]4C)C5(C)C)nn23)cc1 (stereo partly specified),–,–,240,> 10000,> 42,–,–,–,–
CC1=C(C(=O)c2cccc3ccccc23)C2C=CC=C3OC[C@@H](CN4CCOCC4)N1C32 (stereo partly specified),–,–,–,13,5.2,–,–,–,–
Cc1ccc(-c2cc3ncccc3c3cc(C(=O)N[C@H]4C5(C)CCC(C5)C4(C)C)nn23)cc1 (stereo partly specified),–,–,800,2200,2.7,–,–,–,–
